Values after ≈ are worked out from the molar mass of the structure shown.

Usually MIC stands for the lowest concentration that inhibits growth of the organism. What is called IC50 is the concentration needed to halve the response being measured. The MBC is the lowest tested concentration that kills the bacteria rather than only halting them.

The test system of experiment [1] is Staphylococcus aureus. Put plainly: Antibacterial activity against […] Staphylococcus aureus ATCC 6538 assessed as reduction in bacterial growth incubated for 18 hrs by CLSI based broth-dilution method. The class given is functional.
In experiment [2] the target is DNA gyrase (Escherichia coli, UniProt P0AES4+P0AES6). Put plainly: Inhibition of Escherichia coli DNA gyrase assessed as reduction in enzyme-mediated supercoiling of relaxed plasmid by fluorescence polarization assay. The class given is protein-complex assay.
Experiment [3] concerns Staphylococcus aureus. As to the kind of experiment: Antibacterial activity against […] Staphylococcus aureus ATCC 25923 assessed as reduction in bacterial growth incubated for 24 hrs by micro-broth dilution method. The class given is functional. In general terms: In broth dilution the organism is exposed to a series of concentrations in liquid medium.
The target in experiment [4] is DNA gyrase (Staphylococcus aureus, UniProt P0A0K8+P20831). Put plainly: Inhibition of Staphylococcus aureus DNA gyrase. The class given is protein-complex assay.
Sequence of DNA gyrase (Staphylococcus aureus, UniProt P0A0K8+P20831) (P0A0K8 whole entry): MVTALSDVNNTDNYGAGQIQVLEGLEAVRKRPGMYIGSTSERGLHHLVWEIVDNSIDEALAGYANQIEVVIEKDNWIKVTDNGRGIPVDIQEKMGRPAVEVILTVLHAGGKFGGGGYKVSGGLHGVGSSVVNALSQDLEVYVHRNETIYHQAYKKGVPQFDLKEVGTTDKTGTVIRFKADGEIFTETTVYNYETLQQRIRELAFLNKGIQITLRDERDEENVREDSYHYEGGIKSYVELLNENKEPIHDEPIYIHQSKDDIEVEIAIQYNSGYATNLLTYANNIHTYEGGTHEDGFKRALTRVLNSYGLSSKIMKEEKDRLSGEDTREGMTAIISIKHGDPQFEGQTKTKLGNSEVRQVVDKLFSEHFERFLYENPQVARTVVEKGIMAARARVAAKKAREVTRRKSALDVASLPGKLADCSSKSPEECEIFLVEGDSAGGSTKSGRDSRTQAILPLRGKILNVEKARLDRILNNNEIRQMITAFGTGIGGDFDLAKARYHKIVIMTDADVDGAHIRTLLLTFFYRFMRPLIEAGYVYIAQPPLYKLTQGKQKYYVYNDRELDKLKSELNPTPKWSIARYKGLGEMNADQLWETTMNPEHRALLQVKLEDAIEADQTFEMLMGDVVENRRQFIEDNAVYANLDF
Sequence of DNA gyrase (Staphylococcus aureus, UniProt P0A0K8+P20831) (P20831 whole entry): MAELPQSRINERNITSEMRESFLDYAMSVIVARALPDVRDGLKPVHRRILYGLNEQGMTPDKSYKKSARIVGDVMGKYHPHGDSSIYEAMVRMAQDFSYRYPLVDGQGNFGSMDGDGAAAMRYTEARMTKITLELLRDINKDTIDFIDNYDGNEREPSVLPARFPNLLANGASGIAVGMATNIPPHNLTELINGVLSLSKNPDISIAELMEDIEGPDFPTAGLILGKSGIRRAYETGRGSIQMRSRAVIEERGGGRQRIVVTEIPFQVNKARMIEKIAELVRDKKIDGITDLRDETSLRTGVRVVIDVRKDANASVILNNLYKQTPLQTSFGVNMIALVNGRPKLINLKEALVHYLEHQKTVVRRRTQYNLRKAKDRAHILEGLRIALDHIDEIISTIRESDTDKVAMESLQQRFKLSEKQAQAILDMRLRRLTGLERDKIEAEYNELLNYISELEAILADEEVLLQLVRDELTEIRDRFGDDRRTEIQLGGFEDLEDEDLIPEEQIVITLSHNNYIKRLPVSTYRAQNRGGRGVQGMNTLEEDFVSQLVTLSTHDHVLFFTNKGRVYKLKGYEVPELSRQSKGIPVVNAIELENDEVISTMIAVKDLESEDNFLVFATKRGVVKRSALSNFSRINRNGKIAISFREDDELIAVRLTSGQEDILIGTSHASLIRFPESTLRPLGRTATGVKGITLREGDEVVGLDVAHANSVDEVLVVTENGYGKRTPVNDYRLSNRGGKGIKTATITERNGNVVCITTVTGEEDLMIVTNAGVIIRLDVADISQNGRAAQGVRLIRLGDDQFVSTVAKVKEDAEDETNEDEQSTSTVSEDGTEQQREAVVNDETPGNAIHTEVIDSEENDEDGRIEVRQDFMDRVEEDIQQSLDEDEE
The subject of experiment [5] is Staphylococcus aureus. As to the kind of experiment: Antibacterial activity against […] Staphylococcus aureus ATCC 6538 assessed as microbial growth inhibition incubated for 24 hrs by broth micro-dilution analysis. The class given is functional.
In a further experiment the test system is Enterococcus faecium. As to the kind of experiment: Antimicrobial activity against Vancomycin-resistant Enterococcus faecium assessed as reduction in bacterial viability incubated for 18 hrs by CLSI protocol based Muller Hinton broth based dilution assay. The experiment is classed as functional.
In experiment [6] the test system is Staphylococcus aureus. Put plainly: Antimicrobial activity against […] Staphylococcus aureus ATCC 29213 assessed as reduction in bacterial viability incubated for 18 hrs by CLSI protocol based Muller Hinton broth based dilution assay. The experiment is classed as functional.
The subject of experiment [7] is Staphylococcus aureus. Put plainly: Antibacterial activity against methicillin-resistant Staphylococcus aureus assessed as reduction in microbial growth measured for 24 hrs by CLSI based broth microdilution method. The class given is functional.
In experiment [8] the test system is Staphylococcus aureus. Put plainly: Antibacterial activity against Staphylococcus aureus assessed as reduction in bacterial growth by CLSI based two-fold microdilution method. The experiment is classed as functional.
Experiment [9] relates to Staphylococcus aureus. As to the kind of experiment: Antimicrobial activity against Methicillin-resistant Staphylococcus aureus ATCC 43300 assessed as bacterial growth inhibition measured after 18 hrs by CLSI based Muller Hinton broth microdilution method. The class given is functional.
Experiment [10] has as its system Staphylococcus aureus. As to the kind of experiment: Antimicrobial activity against Methicillin-resistant Staphylococcus aureus ATCC BAA41 assessed as bacterial growth inhibition measured after 18 hrs by CLSI based Muller Hinton broth microdilution method. The experiment is classed as functional.
In experiment [11] the test system is Staphylococcus aureus. As to the kind of experiment: Antimicrobial activity against Methicillin-resistant Staphylococcus aureus ATCC 33591 assessed as bacterial growth inhibition measured after 18 hrs by CLSI based Muller Hinton broth microdilution method. The class given is functional.
In experiment [12] the test system is Staphylococcus aureus. As to the kind of experiment: Antibacterial activity against Methicillin-resistant Staphylococcus aureus ATCC 43300 clinical isolate assessed as reduction in microbial growth incubated for 16 to 20 hrs by CLSI based two-fold serial dilution method. The class given is functional. Particulars: time 16-20 hrs.

As to `O=C(O)c1cccc(N2C(=O)/C(=C/c3c[nH]c4ccccc34)SC2=S)c1`, the MIC with Staphylococcus aureus [1] was found to be 12 µg/mL (≈ 31.5 µM).
Take `COC(=O)CC(=O)Nc1nc2c(s1)C[C@@H](NC(=O)c1[nH]c(C)c(Br)c1Cl)CC2`: the IC50 at DNA gyrase [2] was 56 nM; on DNA gyrase [4], 3700 nM. Besides, the MIC in the experiment on Staphylococcus aureus [3] was found to be 8 µg/mL (≈ 16.3 µM).
Regarding `CCCC(C(=O)O)N1C(=O)/C(=C/c2c[nH]c3ccccc23)SC1=S` (stereo not drawn), the MIC with Staphylococcus aureus [5] worked out at 250 µg/mL (≈ 694 µM).
For the molecule `CCCN(CCC)CCCN1/C(=C/c2c3ccccc3[n+](C)c3c2oc2ccccc23)Sc2ccccc21.[I-]`, the MIC with Enterococcus faecium and in the experiment on Staphylococcus aureus [6] was 0.25 µg/mL throughout.
Take `NC(=S)N/N=C/C1=CC(c2ccc([N+](=O)[O-])cc2[N+](=O)[O-])C=C1c1ccc(Cl)cc1Cl` (stereo not drawn): the MBC with Staphylococcus aureus [7] amounted to 38 µg/mL.
For the molecule `C=C(C)[C@@H]1CC=C2c3sc(-c4cc(O)cc(O)c4)nc3C[C@@H](C)[C@]2(C)C1`, in the experiment on Staphylococcus aureus [8], the MIC stood at 3.12 µg/mL (≈ 8.49 µM).
As to `CN1/C(=C/c2cc(/C=C/c3cccnc3)[n+](C)c3ccccc23)Sc2ccccc21.[I-]`, the MIC in the experiment on Staphylococcus aureus [9], in the experiment on Staphylococcus aureus [10] and in the experiment on Staphylococcus aureus [11] was 1.5 µg/mL each time.
Turning to `Cc1cc(/C=C2\Sc3ccccc3N2CCCN2CCC(C)CC2)c2ccccc2[n+]1C.[I-]`, the MIC in the experiment on Staphylococcus aureus [12] was 2 µg/mL.

The values are drawn from ChEMBL document CHEMBL5518159, “Thiazole-based analogues as potential antibacterial agents against methicillin-resistant Staphylococcus aureus (MRSA) and their SAR elucidation” (Eur J Med Chem, 2023).
